Like-named read-outs stand apart in the source and are kept apart here.
Biological target: T1, LRRK2 (endogenous, HiBit tagged) (Homo sapiens, UniProt Q5S007)
T1 construct: endogenous in cells; host or cells: HEK293 cells with HiBit knock-in at the endogenous LRRK2 locus, stably expressing firefly luciferase
Experiment: Endogenous LRRK2 degradation assay, endogenous gene C-terminally HiBit-tagged in HEK293 cells (Nano-Glo Dual Luciferase)
Format: cell-based
How it was run: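 LRRK2-HiBit quantified via Nano-Glo Dual Luciferase in HEK293 knock-in cells co-expressing firefly luciferase, after 24 h exposure to compound (1 μM final top, 1:3, 11 points). Values normalised to DMSO median per plate and curve-fitted; Alamar Blue viability run alongside.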

[1] = endogenous HiBit-tagged LRRK2 in HEK293 cells, 24 hours treatment, read-out: Endogenous WT DC50
[2] = endogenous HiBit-tagged LRRK2 in HEK293 cells, 24 hours treatment, read-out: Endogenous WT Dmax
[3] = endogenous HiBit-tagged LRRK2 in HEK293 cells, 24 hours treatment, read-out: **Endogenous WT Dmax (%)
[4] = endogenous HiBit-tagged LRRK2 in HEK293 cells, 24 hours treatment, read-out: *Endogenous WT DC50

T1 sequence (Q5S007 whole entry): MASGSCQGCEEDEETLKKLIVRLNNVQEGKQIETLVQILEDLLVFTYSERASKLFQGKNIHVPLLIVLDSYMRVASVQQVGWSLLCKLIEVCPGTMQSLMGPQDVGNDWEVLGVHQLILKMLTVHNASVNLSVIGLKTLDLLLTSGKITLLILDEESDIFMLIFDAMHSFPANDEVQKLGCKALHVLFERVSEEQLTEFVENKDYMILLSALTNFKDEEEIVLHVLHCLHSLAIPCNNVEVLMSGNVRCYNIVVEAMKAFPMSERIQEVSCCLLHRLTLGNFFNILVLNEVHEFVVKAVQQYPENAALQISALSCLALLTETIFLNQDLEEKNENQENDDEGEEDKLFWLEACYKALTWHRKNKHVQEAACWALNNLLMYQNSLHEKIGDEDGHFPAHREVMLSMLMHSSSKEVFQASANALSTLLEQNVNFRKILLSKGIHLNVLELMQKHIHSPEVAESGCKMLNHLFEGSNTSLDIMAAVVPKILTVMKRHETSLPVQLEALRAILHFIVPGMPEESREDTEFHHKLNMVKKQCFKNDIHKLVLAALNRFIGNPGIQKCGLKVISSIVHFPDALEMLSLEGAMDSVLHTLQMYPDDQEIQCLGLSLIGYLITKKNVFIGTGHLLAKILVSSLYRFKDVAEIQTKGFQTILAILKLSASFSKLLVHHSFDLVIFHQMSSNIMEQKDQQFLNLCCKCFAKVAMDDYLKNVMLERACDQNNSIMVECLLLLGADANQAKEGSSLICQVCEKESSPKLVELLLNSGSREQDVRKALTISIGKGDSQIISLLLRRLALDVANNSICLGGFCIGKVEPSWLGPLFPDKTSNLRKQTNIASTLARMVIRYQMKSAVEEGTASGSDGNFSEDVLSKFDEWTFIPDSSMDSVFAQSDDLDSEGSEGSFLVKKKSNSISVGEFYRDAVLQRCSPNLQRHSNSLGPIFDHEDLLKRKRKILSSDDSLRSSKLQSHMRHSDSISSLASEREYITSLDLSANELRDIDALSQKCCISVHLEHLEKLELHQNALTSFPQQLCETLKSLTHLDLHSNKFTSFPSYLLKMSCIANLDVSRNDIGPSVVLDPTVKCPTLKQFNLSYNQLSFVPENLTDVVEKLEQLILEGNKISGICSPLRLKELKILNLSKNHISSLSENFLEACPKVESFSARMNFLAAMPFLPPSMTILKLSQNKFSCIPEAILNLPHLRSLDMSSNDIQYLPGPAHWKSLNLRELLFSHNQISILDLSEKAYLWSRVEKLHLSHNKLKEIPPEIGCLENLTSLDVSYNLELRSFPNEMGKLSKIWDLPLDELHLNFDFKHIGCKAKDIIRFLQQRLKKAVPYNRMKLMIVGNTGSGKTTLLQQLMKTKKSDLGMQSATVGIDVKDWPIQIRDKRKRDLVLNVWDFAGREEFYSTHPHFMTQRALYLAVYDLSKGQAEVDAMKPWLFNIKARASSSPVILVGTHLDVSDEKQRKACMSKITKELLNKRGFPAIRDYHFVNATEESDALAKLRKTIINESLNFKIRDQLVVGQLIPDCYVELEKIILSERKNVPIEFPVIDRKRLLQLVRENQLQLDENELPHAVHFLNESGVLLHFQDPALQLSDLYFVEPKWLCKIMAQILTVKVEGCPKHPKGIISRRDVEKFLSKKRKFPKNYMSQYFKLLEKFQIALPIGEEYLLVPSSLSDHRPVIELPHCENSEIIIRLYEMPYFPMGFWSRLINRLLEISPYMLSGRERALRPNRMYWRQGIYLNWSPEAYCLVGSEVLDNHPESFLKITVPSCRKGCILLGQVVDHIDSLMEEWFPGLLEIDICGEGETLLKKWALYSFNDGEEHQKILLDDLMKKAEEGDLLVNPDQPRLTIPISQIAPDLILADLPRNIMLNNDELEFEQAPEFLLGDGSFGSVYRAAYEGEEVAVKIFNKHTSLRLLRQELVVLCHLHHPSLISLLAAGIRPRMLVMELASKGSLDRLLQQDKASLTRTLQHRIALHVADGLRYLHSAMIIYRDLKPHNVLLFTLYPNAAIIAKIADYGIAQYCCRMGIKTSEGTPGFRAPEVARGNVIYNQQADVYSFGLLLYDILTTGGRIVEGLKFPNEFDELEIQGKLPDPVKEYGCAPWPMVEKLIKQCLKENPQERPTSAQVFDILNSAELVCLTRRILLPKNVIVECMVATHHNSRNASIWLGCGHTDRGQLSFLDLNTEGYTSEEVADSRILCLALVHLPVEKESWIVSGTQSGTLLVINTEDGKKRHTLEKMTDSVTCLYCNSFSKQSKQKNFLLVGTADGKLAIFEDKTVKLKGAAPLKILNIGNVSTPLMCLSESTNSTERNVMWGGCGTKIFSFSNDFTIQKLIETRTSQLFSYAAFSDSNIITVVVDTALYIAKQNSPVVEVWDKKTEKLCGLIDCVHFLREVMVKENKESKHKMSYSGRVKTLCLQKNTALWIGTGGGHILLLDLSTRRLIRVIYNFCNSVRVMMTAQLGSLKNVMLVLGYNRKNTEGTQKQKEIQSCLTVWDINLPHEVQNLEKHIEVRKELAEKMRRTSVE

SMILES	DC50 [1] [nM]	Dmax [2] [%]	Dmax [3] [%]	DC50 [4] [nM]	further results
CC1(Oc2ccc3[nH]nc(-c4cc(N5CCC(CN6CCC(F)(CN7CCN(c8c(F)cc9c(c8F)CN(C8CCC(=O)NC8=O)C9=O)CC7)CC6)CC5)ncn4)c3c2)CC1 (stereo not shown) [Compound 373, 3-{4,6-difluoro-5-[4-({4-fluoro-1-[(1-{6-[5-(1-methylcyclopropoxy)-1H-indazol-3-yl]pyrimidin-4-yl}piperidin-4-yl)methyl]piperidin-4-yl}methyl)piperazin-1-yl]-1-oxo-2,3-dihydro-1H-isoindol-2-yl}piperidine-2,6-dione]	< 10	≥ 70			
CC1(Oc2ccc3[nH]nc(-c4cnnc(N5CCC(O[C@H]6CC[C@H](CN7CCN(c8ccc9c(c8F)CN(C8CCC(=O)NC8=O)C9=O)CC7)CC6)CC5)c4)c3c2)CC1 (stereo partly shown) [Compound 377, 3-[4-fluoro-1-oxo-5-(4-{[(1r,4r)-4-[(1-{5-[5-(1-methylcyclopropoxy)-1H-indazol-3-yl]pyridazin-3-yl}piperidin-4-yl)oxy]cyclohexyl]methyl}piperazin-1-yl)-2,3-dihydro-1H-isoindol-2-yl]piperidine-2,6-dione]	< 10	50 to 70			
CC1(Oc2ccc3[nH]nc(-c4cc(N5CCC(CN6CCN(C[C@H]7CCN(c8ccc9c(c8F)CN(C8CCC(=O)NC8=O)C9=O)C7)CC6)CC5)ncn4)c3c2)CC1 (stereo partly drawn) [Compound 330, 3-{4-fluoro-5-[(3R)-3-({4-[(1-{6-[5-(1-methylcyclopropoxy)-1H-indazol-3-yl]pyrimidin-4-yl}piperidin-4-yl)methyl]piperazin-1-yl}methyl)pyrrolidin-1-yl]-1-oxo-2,3-dihydro-1H-isoindol-2-yl}piperidine-2,6-dione]			50 to 70	< 10	
COc1c(N2CCN(CC3(F)CCN(CC4CCN(c5cc(-c6[nH]nc7ccc(OC8(C)CC8)cc67)ncn5)CC4)CC3)CC2)ccc2c1CN(C1CCC(=O)NC1=O)C2=O (stereo not shown) [Compound 246, 3-{5-[4-({4-fluoro-1-[(1-{6-[5-(1-methylcyclopropoxy)-2H-indazol-3-yl]pyrimidin-4-yl}piperidin-4-yl)methyl]piperidin-4-yl}methyl)piperazin-1-yl]-4-methoxy-1-oxo-2,3-dihydro-1H-isoindol-2-yl}piperidine-2,6-dione]	< 10	50 to 70			
COc1c(N2CCC(CN3CC[C@H](OC4CCN(c5cc(-c6n[nH]c7ccc(OC8(C)CC8)cc67)ncn5)CC4)CC3(C)C)CC2)ccc2c1CN(C1CCC(=O)NC1=O)C2=O (stereo partly drawn) [Compound 325, 3-(5-(4-(((S)-2,2-dimethyl-4-((1-(6-(5-(1-methylcyclopropoxy)-1H-indazol-3-yl)pyrimidin-4-yl)piperidin-4-yl)oxy)piperidin-1-yl)methyl)piperidin-1-yl)-4-methoxy-1-oxoisoindolin-2-yl)piperidine-2,6-dione]			50 to 70	< 10	
CC1(Oc2cc3c(-c4cc(N5CCC(O[C@H]6CC[C@H](OC7CCN(c8ccc9c(c8F)CN(C8CCC(=O)NC8=O)C9=O)CC7)CC6)CC5)ncn4)n[nH]c3cn2)CC1 (stereo partly shown) [Compound 210, 3-[4-fluoro-5-[4-[4-[[1-[6-[5-(1-methylcyclopropoxy)-1H-pyrazolo[3,4-c]pyridin-3-yl]pyrimidin-4-yl]-4-piperidyl]oxy]cyclohexoxy]-1-piperidyl]-1-oxo-isoindolin-2-yl]piperidine-2,6-dione]	< 10	≥ 70			
CC1(Oc2cc3c(-c4cc(N5CCC(CC6(F)CCN(CC7CCN(c8ccc9c(c8F)CN(C8CCC(=O)NC8=O)C9=O)CC7)CC6)CC5)ncn4)n[nH]c3cc2F)CC1 (stereo not shown) [Compound 207, 3-[4-fluoro-5-[4-[[4-fluoro-4-[[1-[6-[6-fluoro-5-(1-methylcyclopropoxy)-1H-indazol-3-yl]pyrimidin-4-yl]-4-piperidyl]methyl]-1-piperidyl]methyl]-1-piperidyl]-1-oxo-isoindolin-2-yl]piperidine-2,6-dione]	10 to 50	50 to 70			
CC1(Oc2cc3c(-c4cc(N5CCC(CN6CCC(F)(CN7CCN(c8ccc9c(c8F)CN(C8CCC(=O)NC8=O)C9=O)CC7)CC6)CC5)ncn4)n[nH]c3cn2)CC1 (stereo not shown) [Compound 343, 3-{4-fluoro-5-[4-({4-fluoro-1-[(1-{6-[5-(1-methylcyclopropoxy)-1H-pyrazolo[3,4-c]pyridin-3-yl]pyrimidin-4-yl}piperidin-4-yl)methyl]piperidin-4-yl}methyl)piperazin-1-yl]-1-oxo-2,3-dihydro-1H-isoindol-2-yl}piperidine-2,6-dione]			50 to 70	< 10	
COc1c(N2CCC(CN3[C@H](C)CN(CC4CCN(c5cc(-c6n[nH]c7ccc(OC8(C)CC8)cc67)ncn5)CC4)C[C@@H]3C)CC2)ccc2c1CN(C1CCC(=O)NC1=O)C2=O (stereo partly drawn) [Compound 288, 3-[5-(4-{[(2R,6S)-2,6-dimethyl-4-[(1-{6-[5-(1-methylcyclopropoxy)-1H-indazol-3-yl]pyrimidin-4-yl}piperidin-4-yl)methyl]piperazin-1-yl]methyl}piperidin-1-yl)-4-methoxy-1-oxo-2,3-dihydro-1H-isoindol-2-yl]piperidine-2,6-dione]			≥ 70	< 10	
CC1(Oc2cc3c(-c4cc(N5CCC(CN6CCC(F)(CC7CCN(c8ccc9c(c8F)CN(C8CCC(=O)NC8=O)C9=O)CC7)CC6)CC5)ncn4)n[nH]c3cc2F)CC1 (stereo not shown) [Compound 232, 3-{4-fluoro-5-[4-({4-fluoro-1-[(1-{6-[6-fluoro-5-(1-methylcyclopropoxy)-1H-indazol-3-yl]pyrimidin-4-yl}piperidin-4-yl)methyl]piperidin-4-yl}methyl)piperidin-1-yl]-1-oxo-2,3-dihydro-1H-isoindol-2-yl}piperidine-2,6-dione]	< 10	50 to 70			
C[C@H]1CN(CC2CCN(c3cc(-c4n[nH]c5cnc(OC6(C)CC6)cc45)ncn3)CC2)CCN1CC1CCN(c2ccc3c(c2F)CN(C2CCC(=O)NC2=O)C3=O)CC1 (stereo partly drawn) [Compound 276, 3-[4-fluoro-5-(4-{[(2S)-2-methyl-4-[(1-{6-[5-(1-methylcyclopropoxy)-1H-pyrazolo[3,4-c]pyridin-3-yl]pyrimidin-4-yl}piperidin-4-yl)methyl]piperazin-1-yl]methyl}piperidin-1-yl)-1-oxo-2,3-dihydro-1H-isoindol-2-yl]piperidine-2,6-dione]			50 to 70	< 10	
CC1(Oc2cc3c(-c4cc(N5CCC(CN6CCC(F)(CN7CCN(c8ccc9c(c8F)CN(C8CCC(=O)NC8=O)C9=O)CC7)CC6)CC5)ncn4)n[nH]c3cc2F)CC1 (stereo not shown) [Compound 199, 3-{4-fluoro-5-[4-({4-fluoro-1-[(1-{6-[6-fluoro-5-(1-methylcyclopropoxy)-1H-indazol-3-yl]pyrimidin-4-yl}piperidin-4-yl)methyl]piperidin-4-yl}methyl)piperazin-1-yl]-1-oxo-2,3-dihydro-1H-isoindol-2-yl}piperidine-2,6-dione]					Dmax (endogenous HiBit-tagged LRRK2, HEK293 cells, 24 hours, read-out: **Endogenous WT Dmax (%)): ≥ 70%; DC50 (endogenous HiBit-tagged LRRK2, HEK293 cells, 24 hours, read-out: *Endogenous WT DC50): < 10 nM
CC1(Oc2ccc3n[nH]c(-c4cc(N5CCN(CC6(F)CN(CC7CCN(c8ccc9c(c8F)CN(C8CCC(=O)NC8=O)C9=O)CC7)C6)CC5)ncn4)c3c2)CC1 (stereo not shown) [Compound 306, 3-{4-fluoro-5-[4-({3-fluoro-3-[(4-{6-[5-(1-methylcyclopropoxy)-2H-indazol-3-yl]pyrimidin-4-yl}piperazin-1-yl)methyl]azetidin-1-yl}methyl)piperidin-1-yl]-1-oxo-2,3-dihydro-1H-isoindol-2-yl}piperidine-2,6-dione]			50 to 70	< 10	
CC1(Oc2ccc3[nH]nc(-c4cc(N5CCC(O[C@H]6CCN(CC7CCN(c8ccc9c(c8F)CN(C8CCC(=O)NC8=O)C9=O)CC7)C(C)(C)C6)CC5)ncn4)c3c2)CC1 (stereo partly drawn) [Compound 308, 3-(5-(4-(((S)-2,2-dimethyl-4-((1-(6-(5-(1-methylcyclopropoxy)-1H-indazol-3-yl)pyrimidin-4-yl)piperidin-4-yl)oxy)piperidin-1-yl)methyl)piperidin-1-yl)-4-fluoro-1-oxoisoindolin-2-yl)piperidine-2,6-dione]			50 to 70	< 10	
CC1(Oc2cc3c(-c4cc(N5CCN(C[C@H]6CC[C@H](CN7CCN(c8ccc9c(c8F)CN(C8CCC(=O)NC8=O)C9=O)CC7)CC6)CC5)ncn4)n[nH]c3cn2)CC1 (stereo partly shown) [Compound 267, 3-[4-fluoro-1-oxo-5-(4-{[(1r,4r)-4-[(4-{6-[5-(1-methylcyclopropoxy)-1H-pyrazolo[3,4-c]pyridin-3-yl]pyrimidin-4-yl}piperazin-1-yl)methyl]cyclohexyl]methyl}piperazin-1-yl)-2,3-dihydro-1H-isoindol-2-yl]piperidine-2,6-dione]			≥ 70	< 10	
CC1(Oc2ccc3n[nH]c(-c4cc(N5CCC(CN6CCN(CC7CCN(c8c(F)ccc9c8CN(C8CCC(=O)NC8=O)C9=O)CC7)CC6)CC5)ncn4)c3c2)CC1 (stereo not shown) [Compound 217, 3-[5-fluoro-4-[4-[[4-[[1-[6-[5-(1-methylcyclopropoxy)-2H-indazol-3-yl]pyrimidin-4-yl]-4-piperidyl]methyl]piperazin-1-yl]methyl]-1-piperidyl]-1-oxo-isoindolin-2-yl]piperidine-2,6-dione]	10 to 50	50 to 70			
COc1c(N2CCC(CN3CCN(CC4CCN(c5cc(-c6n[nH]c7cnc(OC8(C)CC8)cc67)ncn5)CC4)C(C)(C)C3)CC2)ccc2c1CN(C1CCC(=O)NC1=O)C2=O (stereo not shown) [Compound 338, 3-{5-[4-({3,3-dimethyl-4-[(1-{6-[5-(1-methylcyclopropoxy)-1H-pyrazolo[3,4-c]pyridin-3-yl]pyrimidin-4-yl}piperidin-4-yl)methyl]piperazin-1-yl}methyl)piperidin-1-yl]-4-methoxy-1-oxo-2,3-dihydro-1H-isoindol-2-yl}piperidine-2,6-dione]			50 to 70	< 10	

Reference: patent US12559506B2, “Indazole based compounds and associated methods of use” (Arvinas Operations, Inc., priority 2021, dated 2026)
